Data: patent US6706663B2, “Herbicidal 3-heterocyclic substituted benzisothiazole and benzisoxazole compounds” (Wyeth, priority 2000, dated 2004)

Tests used:
ORYSAT (Rice, Tebonnet) [1] = experiment: Preemergence herbicidal evaluation; assay type: in vivo, Oryza sativa, (L.) Tebonnet; conditions: preemergence, rated 4-5 weeks after treatment
[2] = system: TRZAWR (Wheat, Winter, cv Riband); experiment: Postemergence herbicidal evaluation; assay type: in vivo, Triticum aestivum
In short: (§1)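 Visual 0–9 injury scores versus control plants, covering stand, vigour, malformation, size, chlorosis and general appearance, taken four to five weeks post-spray and averaged over replicate tests. Plants were sprayed at roughly two weeks old and held on greenhouse benches.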

[3] = system: CASOB (Cassia obtusifolia); experiment: Preemergence herbicidal evaluation; assay type: in vivo, L.; conditions: preemergence, rated 4-5 weeks after treatment
In short: (§2)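 Steps: mix seeds with potting soil; plant on ~1 inch soil per cup; spray compound in aqueous acetone; hold on greenhouse benches with routine watering; rate 0–9 visually against control at 4–5 weeks.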

[4] = system: CHEAL (Chenopodium album); experiment: Preemergence herbicidal evaluation; assay type: in vivo, L.; conditions: preemergence, rated 4-5 weeks after treatment
In short: as §2

[5] = system: AMBEL (Ambrosia artemisifolia); experiment: Preemergence herbicidal evaluation; assay type: in vivo, L.; conditions: preemergence, rated 4-5 weeks after treatment
In short: as §2

[6] = system: ABUTH (Abutilon theophrasti); experiment: Postemergence herbicidal evaluation; assay type: in vivo, Medic.
In short: as §1

[7] = system: IPOHE (Ipomoea hederacea); experiment: Postemergence herbicidal evaluation; assay type: in vivo, (L.) Jacq.
In short: as §1

ORYSAT (Rice, Tebonnet) [8] = experiment: Postemergence herbicidal evaluation; assay type: in vivo, Oryza sativa, (L.) Tebonnet
In short: as §1

[9] = system: ECHCG (Echinochloa crus-galli); experiment: Preemergence herbicidal evaluation; assay type: in vivo, (L.) Beau; conditions: preemergence, rated 4-5 weeks after treatment
In short: as §2

SETVI (Setaria viridis) [10] = experiment: Preemergence herbicidal evaluation; assay type: in vivo, (L.) Beau; conditions: preemergence, rated 4-5 weeks after treatment
In short: as §2

GALAP (Galium aparine) [11] = experiment: Preemergence herbicidal evaluation; assay type: in vivo; conditions: preemergence, rated 4-5 weeks after treatment
In short: as §2

SETVI (Setaria viridis) [12] = experiment: Postemergence herbicidal evaluation; assay type: in vivo, (L.) Beau
In short: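 Ratings use a 0-9 visual scale covering stand, vigor, malformation, size, chlorosis and appearance versus a control, scored 4-5 weeks post-spray. Roughly two-week-old seedlings received about 0.0040-1.000 kg/ha active, applied in 50/50 acetone/water with 0.5% TWEEN 20. Multiple tests per compound were averaged.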

[13] = system: CYPSE (Cyperus serotinus); experiment: Flooded paddy, preemergence weed control; assay type: in vivo, Rottb.; conditions: rated 3-4 weeks after treatment, 0-9 rating scale
In short: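 Herbicidal effect was scored visually on a 0–9 scale against an untreated control 3–4 weeks after treatment. Compounds were applied preemergence as 50/50 v/v aqueous/acetone mixtures into flood water (1.5–3 cm deep over silt loam), at roughly 0.0080 to 0.1250 kg/ha active ingredient.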

GALAP (Galium aparine) [14] = experiment: Postemergence herbicidal evaluation; assay type: in vivo
In short: as §1

[15] = system: CASOB (Cassia obtusifolia); experiment: Postemergence herbicidal evaluation; assay type: in vivo, L.
In short: as §1

[16] = system: CHEAL (Chenopodium album); experiment: Postemergence herbicidal evaluation; assay type: in vivo, L.
In short: as §1

[17] = system: AMBEL (Ambrosia artemisifolia); experiment: Postemergence herbicidal evaluation; assay type: in vivo, L.
In short: as §1

CYPIR (Cyperus iria) = experiment: Flooded paddy, preemergence weed control; assay type: in vivo; conditions: rated 3-4 weeks after treatment, 0-9 rating scale
In short: (§3)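 Plants were established from seed or propagating organs in flooded silt loam, with the water surface held 1.5 to 3 cm above the soil for the entire experiment. Injury was assessed visually against a control and given a 0-9 score.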

[18] = system: SAGPY (Sagittaria pygmaea); experiment: Flooded paddy, preemergence weed control; assay type: in vivo, L.; conditions: rated 3-4 weeks after treatment, 0-9 rating scale
In short: as §3

[19] = system: MOOVA (Monochoria vaginalis); experiment: Flooded paddy, preemergence weed control; assay type: in vivo, Presl.; conditions: rated 3-4 weeks after treatment, 0-9 rating scale
In short: as §3

Cn1c(C(F)(F)F)cc(=O)n(-c2ccc3snc(C4OCC(C)(C)CO4)c3c2)c1=O [Compound 36, 3-[3(5,5-dimethyl-m-dioxan-2-yl)-1,2-benzisothiazol-5-yl]-1-methyl-6-(trifluoromethyl)uracil]
ORYSAT preemergence herbicidal rating (ORYSAT (Rice, Tebonnet) [1]; Rate 0.0620 kg/ha): 7.5
ORYSAT preemergence herbicidal rating (ORYSAT (Rice, Tebonnet) [1]; Rate 0.1250 kg/ha): 9.0
ORYSAT preemergence herbicidal rating (ORYSAT (Rice, Tebonnet) [1]; Rate 0.2500 kg/ha): 9.0
Postemergence herbicidal rating, TRZAWR ([2]; rate 0.0320 kg/ha): 4.0
Postemergence herbicidal rating, TRZAWR ([2]; rate 0.0620 kg/ha): 4.5
CASOB preemergence herbicidal rating ([3]; Rate 0.0620 kg/ha): 5.0
CASOB preemergence herbicidal rating ([3]; Rate 0.1250 kg/ha): 9.0
CASOB preemergence herbicidal rating ([3]; Rate 0.2500 kg/ha): 9.0
CHEAL preemergence herbicidal rating ([4]; Rate 0.0620 kg/ha): 9.0
CHEAL preemergence herbicidal rating ([4]; Rate 0.1250 kg/ha): 9.0
CHEAL preemergence herbicidal rating ([4]; Rate 0.2500 kg/ha): 9.0
AMBEL preemergence herbicidal rating ([5]; Rate 0.0620 kg/ha): 9.0
AMBEL preemergence herbicidal rating ([5]; Rate 0.1250 kg/ha): 9.0
AMBEL preemergence herbicidal rating ([5]; Rate 0.2500 kg/ha): 9.0
Postemergence herbicidal rating, ABUTH ([6]; rate 0.0320 kg/ha): 9.0
Postemergence herbicidal rating, ABUTH ([6]; rate 0.0620 kg/ha): 9.0
Postemergence herbicidal rating, IPOHE ([7]; rate 0.0320 kg/ha): 9.0
Postemergence herbicidal rating, IPOHE ([7]; rate 0.0620 kg/ha): 9.0
Postemergence herbicidal rating, ORYSAT (ORYSAT (Rice, Tebonnet) [8]; rate 0.0320 kg/ha): 4.5
Postemergence herbicidal rating, ORYSAT (ORYSAT (Rice, Tebonnet) [8]; rate 0.0620 kg/ha): 7.0
ECHCG preemergence herbicidal rating ([9]; Rate 0.0620 kg/ha): 9.0
ECHCG preemergence herbicidal rating ([9]; Rate 0.1250 kg/ha): 9.0
ECHCG preemergence herbicidal rating ([9]; Rate 0.2500 kg/ha): 9.0
SETVI preemergence herbicidal rating (SETVI (Setaria viridis) [10]; Rate 0.0620 kg/ha): 9.0
SETVI preemergence herbicidal rating (SETVI (Setaria viridis) [10]; Rate 0.1250 kg/ha): 9.0
SETVI preemergence herbicidal rating (SETVI (Setaria viridis) [10]; Rate 0.2500 kg/ha): 9.0
GALAP preemergence herbicidal rating (GALAP (Galium aparine) [11]; Rate 0.0620 kg/ha): 5.0
GALAP preemergence herbicidal rating (GALAP (Galium aparine) [11]; Rate 0.1250 kg/ha): 9.0
GALAP preemergence herbicidal rating (GALAP (Galium aparine) [11]; Rate 0.2500 kg/ha): 9.0
Postemergence herbicidal rating, SETVI (SETVI (Setaria viridis) [12]; rate 0.0320 kg/ha): 4.0
Postemergence herbicidal rating, SETVI (SETVI (Setaria viridis) [12]; rate 0.0620 kg/ha): 9.0
herbicidal rating, CYPSE ([13]; rate 0.0320 kg/ha): 9.0
herbicidal rating, CYPSE ([13]; rate 0.1250 kg/ha): 9.0
Postemergence herbicidal rating, GALAP (GALAP (Galium aparine) [14]; rate 0.0320 kg/ha): 4.0
Postemergence herbicidal rating, GALAP (GALAP (Galium aparine) [14]; rate 0.0620 kg/ha): 5.0
Postemergence herbicidal rating, CASOB ([15]; rate 0.0320 kg/ha): 9.0
Postemergence herbicidal rating, CASOB ([15]; rate 0.0620 kg/ha): 9.0
Postemergence herbicidal rating, CHEAL ([16]; rate 0.0320 kg/ha): 7.0
Postemergence herbicidal rating, CHEAL ([16]; rate 0.0620 kg/ha): 9.0
Postemergence herbicidal rating, AMBEL ([17]; rate 0.0320 kg/ha): 9.0
Postemergence herbicidal rating, AMBEL ([17]; rate 0.0620 kg/ha): 9.0
herbicidal rating, CYPIR (CYPIR (Cyperus iria); rate 0.0080 kg/ha): 0.0
herbicidal rating, CYPIR (CYPIR (Cyperus iria); rate 0.0320 kg/ha): 9.0
herbicidal rating, CYPIR (CYPIR (Cyperus iria); rate 0.1250 kg/ha): 9.0
herbicidal rating, SAGPY ([18]; rate 0.0080 kg/ha): 0.0
herbicidal rating, SAGPY ([18]; rate 0.0320 kg/ha): 3.5
herbicidal rating, SAGPY ([18]; rate 0.1250 kg/ha): 9.0
herbicidal rating, MOOVA ([19]; rate 0.0080 kg/ha): 9.0
herbicidal rating, MOOVA ([19]; rate 0.0320 kg/ha): 9.0
